Experimental findings from US10034738B2, “Cardiac tissue constructs and methods of fabrication thereof” (THE GOVERNING COUNCIL OF THE UNIVERSITY OF TORONTO, priority 2012, dated 2018) are described below.

The subject of assay [1] is cardiac microwire. Description: Optical mapping of intracellular calcium transients of cardiac microwire (calcium-sensitive dye). Type of assay: cell-based, human. How it is done: (§1) Using drugs of known effects, the cardiac microwire was perturbed and optically mapped their response (transmembrane AP and intracellular calcium transient) using voltage- and calcium-sensitive dyes, respectively.
Conduction velocity was calculated at each location using activation times of 9 neighbouring sites. Conduction velocity values from all sites were used to calculate the average conduction velocity across the construct surface; minimum and maximum values were also noted. Phase contrast images of microtissue surfaces were taken prior to optical mapping, to correlate tissue architecture geometry with conduction velocity. Concentrations of drugs used applied as indicated. Stock solutions were prepared as recommended by vendors: Epinephrine at 1:1000 (Hospira), Lidocaine at 1:1000 (Hospira), and Verapamil at 1:1000 (Sandoz).
(In general: Calcium flux is commonly read through the fluorescence of an indicator in the cells.)

The test system of assay [2] is cardiac microwire. Description: Optical mapping of transmembrane action potentials of cardiac microwire (voltage-sensitive dye). Type of assay: cell-based, human. As to conditions: relative to the baseline. How it is done: as §1
For optical measurements, microtissues were stained with […] of Di-4-ANEPPS (Invitrogen, Carlsbad Calif.) voltage-sensitive dye for 20 minutes, followed by 3 washouts with fresh warm Tyrode's solution (Sigma-Aldrich) adjusted to pH 7.4. The temperature was kept constant at 37° C. using a block incubator. Dye fluorescence was recorded using a microscope mapping system (Ultima, Scimedia, Tokyo Japan). The system included a CMOS camera with a 1 cm sensor (100×100 pixel) attached to a custom-built microscope using PLAN APO objective and condensing lenses (Leica Microsystems GmbH, Wetzlar Germany), giving a magnification of 1.5×. The spatial resolution was 63 μm/pixel. The fluorescence was excited using a Xenon light source (Moritek Corp. Japan) and a 530 nm green filter (Semrock, Rochester N.Y.) and the emission signal was long pass filtered using a 610 nm red filter. Tissue constructs were point stimulated at 1000-ms cycle length using a bipolar electrode made with 2 fine silver wires (AWG#32) inserted in a large stainless steel needle mounted on a micromanipulator. Spontaneous tissue beating was also recorded, in addition to responses to frequency sweep from 1 to 5 Hz. Local activation times were measured at the peak of dF/dT for each pixel. Activation maps were constructed for a selected beat.
Conduction velocity was calculated at each location using activation times of 9 neighbouring sites. Conduction velocity values from all sites were used to calculate the average conduction velocity across the construct surface; minimum and maximum values were also noted. Phase contrast images of microtissue surfaces were taken prior to optical mapping, to correlate tissue architecture geometry with conduction velocity. Concentrations of drugs used applied as indicated. […]

The test system of assay [3] is cardiac tissue constructs. The following applies: relative to no-drug control, 15 minutes of incubation at 37 degrees Celsius, increasing concentrations.
Protocol: In the present example, microwells with ramped support structures having retaining structures provided thereon, as described above, were seeded at 0.1×10^6 cells per tissue in 2.0 mg/mL Collagen 1. Tissues remodeled over two weeks along with contractile force as measured using the microcantilevers in the system. After two weeks, tissues were introduced with drugs in 100% DMSO vehicle. Final concentrations applied to tissues were ensured to be less than 0.01% DMSO to ensure non-toxic effects. Concentrations were mixed separately in a 96 well plate and applied to the tissues. Measurements were taken after 15 minutes of incubation with the drug at 37 degrees Celsius.
Videos of approximately 10 seconds were recorded and analyzed offline using ImageJ for each condition. […] Contractile force assays were conducted after the contractile force was plateaued to ensure no changes in contractile force due to tissue remodeling.
The test system of assay [4] is cardiac tissue constructs. Nature of the assay: Preliminary growth factor screen, excitation threshold (ET) of cardiac tissue constructs. Type of assay: cell-based. The following applies: compared to the control condition. How it is done: Tissue function was established by measuring excitation threshold (ET), the minimum voltage required to pace the tissue simultaneously, and maximum capture rate (MCR), the maximum stimulation rate at which the construct can be induced to beat simultaneously, at 7 days after cell seeding. Tissue constructs or cardiomyocyte aggregates were individually placed between a pair of carbon electrodes in stimulation chambers (autoclaved before use). ET (V/cm) was measured by stimulating the tissue with square pulses of 2 ms pulse width at a frequency of 1 or 2 Hz and gradually increasing the output voltage of the stimulator until >80% of the tissue was beating synchronously with the stimulator output. MCR was measured by setting the output voltage at 12 V, and increasing frequency until >80% of the tissue was no longer synchronously beating with the driving signal. […]
A preliminary screen was also performed in order to determine the maturation effect of growth factors. […] The challenge with higher level functional readouts with in vitro models is that further analyses need to be done to determine the mode of action. In order to determine the mechanism of IGF1 and HRG, other functional parameters as well as molecular readouts over a time course will be investigated.

“Also recorded” adds a separate entry of the source.

For the compound `CNC[C@H](O)c1ccc(O)c(O)c1` [Epinephrine], the “rate of calcium transients” value in the assay on cardiac microwire [1] (Epinephrine 0.1 μg/mL supplemented after Verapamil 0.25 μg/mL) was “increased the rate of calcium transients”. The AP activation rate result in the assay with cardiac microwire [2] (Epinephrine 0.1 μg/mL) was “increased the AP activation rate relative to the baseline”; in the assay on cardiac microwire [2] (Epinephrine 0.1 μg/mL, listed as epinephrine), “increased activation rate”.
Take `CCN(CC)CC(=O)Nc1c(C)cccc1C` [Lidocaine]: the AP activation rate entry in the assay on cardiac microwire [2] (increasing concentrations of Lidocaine, 2 μg/mL and 4 μg/mL) is “reduced and nearly abolished activation; also recorded: decreased the activation rate”.
Take `CC(C)(C)c1ccc(C(O)CCCN2CCC(C(O)(c3ccccc3)c3ccccc3)CC2)cc1` (stereo not shown) [Terfenadine]: in assay [3], the relative contractile force result was “reduce the contractile force (relative to control) with increasing concentrations”.
Regarding `COc1ccc(CCN(C)CCCC(C#N)(c2ccc(OC)c(OC)c2)C(C)C)cc1OC` (stereo not shown) [Verapamil], the “amplitude of calcium waves” value with cardiac microwire [1] (Verapamil 0.25 μg/mL, relative to the baseline) is “reduced the amplitude of calcium waves”.
As to “IGF1: one of seven growth factors in a preliminary maturation screen”, the “excitation threshold (ET)” value in assay [4] is reported as “reduced ET compared to the control condition”.
